Source: patent US7749530B2, “Kinase inhibitors” (Allergan, Inc., priority 2005, dated 2010)

Assay: in vitro release study of TKI from ocular implants (polymer composites)
Type: physicochemical
Details: for burst release at day 1 / period of release at the stated rate: formulation of 50% polymer (RG755 or RG504) and 50% TKI; for time over which the ocular composite continues to release the TKI / release of the TKI from the ocular implant (percent of TKI): phosphate buffered saline release medium pH 7.4, 37° C.; for release of the TKI from the ocular implant (percent of TKI): within 30 days
Description: The in vitro release study was carried out in an incubator at 37° C. shaking at 120 rpm.
The release medium was 0.02% Polysorbate 80 containing 10 mM phosphate buffered saline, pH7.4. The medium and implants were placed in 20 mL scintillation vials. At given time points, the medium containing released drug was collected and replaced with fresh medium. The concentration of the compound in the release medium was analyzed using HPLC.

Row | Structure (SMILES) | burst release at day 1 | period of release at the stated rate | time over which the ocular composite continues to release the TKI [months] | release of the TKI from the ocular implant (percent of TKI)
1 | Cc1ccoc1C(=O)Nc1cccc(C(=O)c2ccc3c(c2)NC(=O)C3=CNc2ccc(CCC(=O)[O-])cc2)c1.[Na+] [Example 378, 3-{4-[(6-{3-[(3-Methyl-furan-2-carbonyl)-amino]-benzoyl}-2-oxo-1,2-dihydro-indol-3-ylidenemethyl)-amino]-phenyl}-propionic acid, sodium salt] | minimal burst release | approximately 50 days | > 6 | 29-35%
2 | Cc1cc(C(=O)Nc2cccc(C(=O)c3ccc4c(c3)NC(=O)C4=CNc3ccc(CN4CCCC4)cc3)c2)n(C)n1 [Example 206, 2,5-Dimethyl-2H-pyrazole-3-carboxylic acid (3-{2-oxo-3-[(4-pyrrolidin-1-ylmethyl-phenylamino)-methylene]-2,3-dihydro-1H-indole-6-carbonyl}-phenyl)-amide] | minimal burst release | approximately 50 days | > 6 | 2-12%
3 | Cc1cc(C(=O)Nc2cccc(C(=O)c3ccc4c(c3)NC(=O)C4=CNc3ccc(CCCC(=O)O)cc3)c2)n(C)n1 [Example 324, 4-{4-[(6-{3-[(2,5-Dimethyl-2H-pyrazole-3-carbonyl)-amino]-benzoyl}-2-oxo-1,2-dihydro-indol-3-ylidenemethyl)-amino]-phenyl}-butyric acid] | – | – | > 6 | 2-8%
